Results published in US20170182106A1, “COMPOSITION INCLUDING KIRENOL OR SIEGESBECKIA HERBA EXTRACT FOR MUSCLE FUNCTION IMPROVEMENT OR EXERCISE ABILITY ENHANCEMENT” (University-Industry Foundation, Yonsei University, priority 2014, published 2017).

Columns and labels:
Format in all cases: cell-based
atrogin-1 = atrogin-1 mRNA expression in differentiated L6 cells (RT-PCR); conditions: kirenol 10, 40 μM, FIG. 6
myogenin = myogenin mRNA expression in TNF-α-treated differentiated L6 cells (RT-PCR); conditions: TNF-α 24 hours, kirenol 10, 40 μM, FIG. 4
Method: (§1) L6 myoblasts (American Type Culture Collection, Manassas, Va., USA), which are muscle cells, were incubated in DMEM (10% FBS, 100 U/mL penicillin, 100 μg/mL streptomycin). When the cell density reached about 80-85%, the cell culture medium was replaced with a DMEM growth medium supplemented with 2% FBS. The experiment was initiated after 6 days of differentiation. To induce muscle reduction, the differentiated L6 cells were treated with TNF-α for 24 hours and then with the ethanol extract of Siegesbeckia orientalis L. (10, 40 ppm) prepared according to Example 3-1 and kirenol (10, 40 μM) prepared according to Example 4. RT-PCR was carried out to measure mRNA expression levels of myogenin and MyoD, which are muscle differentiation regulatory factors. TRIzol Reagent (Invitrogen, Carlsbad, Calif., USA) was used for harvesting total RNA from the differentiated cells, and the total RNA was reverse transcribed. The RT-PCR analysis was carried out as follows: First, the RNA was reverse transcribed for cDNA synthesis by using a reverse transcriptase. RT-PCR was conducted using specific primers as listed below, and β-actin was used to indicate that a constant amount of mRNA was loaded into each lane.

MyoD = MyoD mRNA expression in TNF-α-treated differentiated L6 cells (RT-PCR); conditions: TNF-α 24 hours, kirenol 10, 40 μM, FIG. 4
Method: as §1

p-mTOR = p-mTOR protein expression in L6 muscle cells (western blotting); conditions: 10 μM kirenol, 24 hours, vs 0.01% DMSO control, FIG. 1
Method: (§2) L6 myoblasts (American Type Culture Collection, Manassas, Va., USA), which are muscle cells, were incubated in Dulbecco's Modified Eagle's Medium (DMEM; Hyclone) containing 10% fetal bovine serum (FBS; Hyclone, Logan, Utah, USA), 100 U/mL penicillin, and 100 μg/mL streptomycin (Gibco, Grand Island, N.Y., USA). The L6 cells were treated with the Siegesbeckia glabrescens Mak. ethanol extract prepared according to the above Example 1-1, the Siegesbeckia pubescens Mak. ethanol extract prepared according to Example 2-1, or the Siegesbeckia orientalis L. ethanol extract prepared according to Example 3-1, each at a concentration of 10 ppm. Also, L6 cells were treated with 10 μM kirenol prepared according to Example 4. In this case, a group treated with 0.01% DMSO instead of being treated with a sample was prepared as a control group. […]
(§3) ECL western blotting detection reagents (Amersham, Tokyo, Japan) were used to color p-mTOR protein bands, and the G:BOX EF imaging system (Syngene, Cambridge, UK) was used to measure the densities of the colored protein bands. In this case, relative densities of protein bands of experimental groups treated with a sample were determined as a percentage (%), with the density of the control protein band being 100%. […]

PGC-1α = PGC-1α protein expression in L6 muscle cells (western blotting); conditions: 10 μM kirenol, 24 hours, vs 0.01% DMSO control, FIG. 11
Method: as §2, with “(myoblast; American” for “(American”, “DMEM (Hyclone)” for “Dulbecco's Modified Eagle's Medium (DMEM; Hyclone)”, “to” for “to the above”, “1-1,” for “1-1, the”, “or” for “or the”, “group. 24 hours later, the L6 cells were dissolved in a RIPA (ELPIS-Biotech, Daejeon, Korea) buffer solution containing a proteinase inhibitor cocktail (Sigma-Aldrich, St. Louis, Mo., USA).” for “group.”
as §3, with “PGC-1α” for “p-mTOR”

MuRF1 = MuRF1 mRNA expression in differentiated L6 cells (RT-PCR); conditions: kirenol 10, 40 μM, FIG. 6

`C[C@@]1(CO)C[C@@H](O)C[C@@]2(C)C3CC[C@](C)([C@@H](O)CO)C=C3CC[C@H]12` (stereo in doubt) [kirenol, (1R,3S,4aS,4bS,7S,10aS)-1,2,3,4,4a,4b,5,6,7,9,10,10a-Dodecahydro-3-hydroxy-7-[(R)-1,2-dihydroxyethyl]-1,4a,7-trimethylphenanthrene-1-methanol] was tested, and the “mRNA expression level of atrogin-1” value (atrogin-1) was “reduces”, the “mRNA expression level of myogenin” value (myogenin) was “increases” and the “mRNA expression level of MyoD” value (MyoD) was “increases”. For the same compound, the “protein expression level of p-mTOR” value (p-mTOR) was “increased”, the “protein expression level of PGC-1α” value (PGC-1α) was “increased” and the “mRNA expression level of MuRF1” value (MuRF1) was “reduces”.
